Laboratory results from patent EP1997826A2, “Synthetic ligands for immunoglobulins and pharmaceutical compositions containing them” (Tecnogen S.p.A., priority 2007, dated 2008).

Test system: RBL 2H3 cells
Test: assay for degranulation of the RBL 2H3 cells (release of β-hexose-aminidase induced by anti-DNP IgE and DNP-BSA antigen)
Type: cell-based, rat
Description: The RBL 2H3 cell line, rat basophils that express the receptor with high affinity for the immunoglobulins of class E (FcεRl), is widely used for investigating allergic reactions, because in this cell line the chemical mediators of inflammation are released as a result of allergen specific-IgE-FcεRI binding.
Release of the enzyme β-hexose-aminidase, which is present together with histamine in the granules of mast cells and basophils, can be used as an index of cellular degranulation (Tanaka et al., 1991, Chem. Pharm. Bull, 39, 2072-2076; McCloskey et al., 1988, Proc. Natl. Acad. Sci., USA, 85, 7260-7264).
The activity of the enzyme β-hexose-aminidase, released by the stimulated RBL 2H3 cells, was determined by the method described by Yamanishi et al., 1995, Jour. Biotech. Biochem., 59 (7), 1272-1275, which envisages measurement of the enzymatic activity by measuring the absorbance of the product p-nitrophenol generated by the synthetic substrate p-nitrophenyl-N-acetyl-β-D-glucosamide. 1x10^5 RBL 2H3 cells, trypsinized from plates at confluence, were resuspended in a volume of 80 µl of the culture medium (MEM + 10% inactivated fetal bovine serum) and distributed in each well of the 96-well plates (Costar). After 24 hours, 20 µl of medium containing anti-2,4-dinitrophenol monoclonal IgEs (DNP, Sigma, Cat. No. D-8406) was added to each well.
The microplates were incubated at 37°C for one hour and then washed three times with 100 µl of HBS buffer solution (10 mM HEPES, 135 mM NaCl, 5 mM KCI, 1 mM CaCl2, 0.5 mM MgCl2, 5.6 mM glucose, 0.1 % BSA, pH 7.4). After the washings, 100 µl of HBS containing the 2,4-dinitrophenol antigen conjugated to BSA (Sigma, Cat. No. A-6661) was added. As a control, 100 µl of HBS containing 1% Triton X-100 was added to some wells to determine the total amount of enzyme contained in the cellular granules.
After further incubation at 37°C for two hours, 30 µl of cellular supernatant or of cellular lysate was transferred to a new microplate, to which 50 µl of sodium citrate buffer at pH 4.5, containing 4 mM p-nitrophenyl-N-acetyl-β-D-glucosaminide (Sigma, Cat. No. N9376), a specific substrate for the enzyme β-hexose-aminidase, had been added beforehand. After incubation for two hours at 37°C, the reaction was stopped by adding 100 µl of glycine solution 0.2 M, pH 10.7. The enzymatic activity was determined by measuring the absorbance at 405 nm with a Microplate Reader Model 3550 EIA (Bio-Rad).
In preliminary experiments the immunoglobulins E and the antigen were added at various concentrations in order to determine the optimum concentrations for induction of the reaction of enzymatic release. The conditions identified experimentally correspond to 0.5 µg/ml of IgE and 0.05 µg/ml of antigen DNP conjugated to BSA.
To verify the capacity of the peptides of formula IB and of comparative peptides for inhibiting the degranulation of the RBL 2H3 cells, the peptides were added in the assay together with the antigen at concentrations between 0.1 and 500 µg/ml.

(H-L-Cys(p-MeOBzl)-L-Arg-L-Thr-L-Tyr)2-Lys-Gly-Lys-OH [ID]
inhibition of degranulation, result in words compared with peptide IB: Results similar to the results obtained with peptide IB
